Assay results taken from article PMC4824752 (Structure (London, England : 1993), 2015).

What was measured:
[1] = tested on: human muscle-type nAChR C418W; format: cell-based; details: C418W relative to wild type
ELIC I319F/V260Y = ELIC I319F/V260Y (Dickeya chrysanthemi, UniProt P0C7B7, I319F/V260Y); format: cell-based; details: read-out: EC50, concentration of cysteamine to elicit half maximal channel gating; ELIC I319F/V260Y double mutant, oocytes
wild type ELIC = wild type ELIC (Dickeya chrysanthemi, UniProt P0C7B7); format: cell-based; details: read-out: EC50, concentration of cysteamine to elicit half maximal channel gating, oocytes, whole cell currents
ELIC G318F/V260Y = ELIC G318F/V260Y (Dickeya chrysanthemi, UniProt P0C7B7, G318F/V260Y); format: cell-based; details: read-out: EC50, concentration of cysteamine to elicit half maximal channel gating; ELIC G318F/V260Y double mutant, oocytes
[2] = tested on: ELIC with the entire aromatic network of GLIC; format: cell-based; details: read-out: EC50, concentration of cysteamine to elicit half maximal channel gating, oocytes
ELIC L308W = ELIC L308W (Dickeya chrysanthemi, UniProt P0C7B7, L308W); test: Two-electrode voltage clamp dose response to cysteamine, ELIC L308W mutant; format: cell-based
[3] = tested on: GLIC aromatic-to-Ala mutants at the M4-M1/M3 interface; details: Fig. S4
[4] = tested on: ELIC aliphatic-to-aromatic mutants at the M4-M1/M3 interface; details: Fig. S4

Q: `CC(=O)OCC[N+](C)(C)C` [acetylcholine] was tested. Which “potentiation of nAChR channel function by C418W (EC50 wild type vs C418W)” value [1] did it give?
A: roughly 25 fold

Q: How did the EC50 (ELIC I319F/V260Y) turn out when `NCCS` [cysteamine] was run?
A: 130 µM

Q: What about the EC50 (wild type ELIC) of the same compound?
A: 940 ± 160 µM

Q: And the EC50 (ELIC G318F/V260Y)?
A: 130 µM

Q: And the EC50 [2]?
A: 150 ± 40 µM

Q: What about the “magnitude of the L308W gain of function relative to the wild type ELIC” value (ELIC L308W; L308W relative to wild type ELIC) of the same compound?
A: ~5 fold

Q: And the EC50 (ELIC L308W; read-out: EC50, concentration of cysteamine to elicit half maximal channel gating, ELIC L308W, oocytes)?
A: 290 ± 50 µM

Q: `CC(C)c1cccc(C(C)C)c1O` [propofol, 2,6 diisopropylphenol] was tested. Which “effect of aromatic-to-Ala substitutions on propofol inhibition” value [3] did it give?
A: None of the aromatic-to-Ala substitutions at the M4-M1/M3 interface of GLIC or the aliphatic-to-aromatic substitutions at the same interface in ELIC, however, had a major effect on propofol inhibition

Q: What about the “effect of aliphatic-to-aromatic substitutions on propofol inhibition” value [4] of the same compound?
A: None of the aromatic-to-Ala substitutions at the M4-M1/M3 interface of GLIC or the aliphatic-to-aromatic substitutions at the same interface in ELIC, however, had a major effect on propofol inhibition
